From PubChem BioAssay AID2060508 (Molecular Pharmacology Branch, DTP, NCI, 2025)
Each block holds one molecule with its values, some of them ahead of it.

Test system: 454973-116-R2-J3-PDC spheroids, viability, % test/control
Experiment: Anticancer human tumor 454973-116-R2-J3-PDC patient-derived pancreatic carcinoma cell line growth inhibition [GQUAD]
Details: spheroids with HUVEC and MSC; for IC50: curve of first compound; for viability, T/C: stronger effect = lower value
In short: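 Viability of tumor cells grown as complex spheroids with endothelial and stromal cells, exposed to drug combinations. Top concentration at or near clinical Cmax (else 10 microM), diluted in half-log increments.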

[1] = second compound 0.0316 µM, first compound 0.0316 µM
[2] = second compound 0.0316 µM, first compound 0.1 µM
[3] = second compound 0.0316 µM, first compound 0.316 µM
[4] = second compound 0.0316 µM, first compound 1 µM
[5] = second compound 0.0316 µM, first compound 3.16 µM
[6] = second compound 0.0316 µM, first compound 10 µM
[7] = second compound 0.1 µM, first compound 0.0316 µM
[8] = second compound 0.1 µM, first compound 0.1 µM
[9] = second compound 0.1 µM, first compound 0.316 µM
[10] = second compound 0.1 µM, first compound 1 µM
[11] = second compound 0.1 µM, first compound 3.16 µM
[12] = second compound 0.1 µM, first compound 10 µM
[13] = second compound 0.316 µM, first compound 0.0316 µM
[14] = second compound 0.316 µM, first compound 0.1 µM
[15] = second compound 0.316 µM, first compound 0.316 µM
[16] = second compound 0.316 µM, first compound 1 µM
[17] = second compound 0.316 µM, first compound 3.16 µM
[18] = second compound 0.316 µM, first compound 10 µM
[19] = second compound 1 µM, first compound 0.0316 µM
[20] = second compound 1 µM, first compound 0.1 µM
[21] = second compound 1 µM, first compound 0.316 µM
[22] = second compound 1 µM, first compound 1 µM
[23] = second compound 1 µM, first compound 3.16 µM
[24] = second compound 1 µM, first compound 10 µM
[25] = second compound 3.16 µM, first compound 0.0316 µM
[26] = second compound 3.16 µM, first compound 0.1 µM
[27] = second compound 3.16 µM, first compound 0.316 µM
[28] = second compound 3.16 µM, first compound 1 µM
[29] = second compound 3.16 µM, first compound 3.16 µM
[30] = second compound 3.16 µM, first compound 10 µM
[31] = second compound 10 µM, first compound 0.0316 µM
[32] = second compound 10 µM, first compound 0.1 µM
[33] = second compound 10 µM, first compound 0.316 µM
[34] = second compound 10 µM, first compound 1 µM
[35] = second compound 10 µM, first compound 3.16 µM
[36] = second compound 10 µM, first compound 10 µM
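Note: spheroids exposed to compounds for seven days.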
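Throughout, for viability, T/C: 100% = DMSO vehicle control viability.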

IC50 (second compound 0.0316 µM): 0.19 µM | IC50 (second compound 0.1 µM): 0.121 µM | IC50 (second compound 0.316 µM): 0.11 µM | IC50 (second compound 1 µM): 0.263 µM | IC50 (second compound 3.16 µM): 0.186 µM | IC50 (second compound 10 µM): < 0.0316 µM
Structure (SMILES): C=CCn1c(=O)c2cnc(Nc3ccc(N4CCN(C)CC4)cc3)nc2n1-c1cccc(C(C)(C)O)n1 + Cc1cnc(CNC(=O)c2c(=O)c3ccc(N4CCCN(C)CC4)nc3n3c2sc2ccccc23)cn1
viability, T/C [1]: 98% | viability, T/C [2]: 78.8% | viability, T/C [3]: 27% | viability, T/C [4]: 11.7% | viability, T/C [5]: 6.73% | viability, T/C [6]: 10.2% | viability, T/C [7]: 76.5% | viability, T/C [8]: 53.6% | viability, T/C [9]: 29.8% | viability, T/C [10]: 12% | viability, T/C [11]: 8.47% | viability, T/C [12]: 8.54% | viability, T/C [13]: 57.6% | viability, T/C [14]: 49.7% | viability, T/C [15]: 37.2% | viability, T/C [16]: 18.1% | viability, T/C [17]: 9.06% | viability, T/C [18]: 9.69% | viability, T/C [19]: 60.9% | viability, T/C [20]: 59.2% | viability, T/C [21]: 48.2% | viability, T/C [22]: 22.4% | viability, T/C [23]: 13.7% | viability, T/C [24]: 13.6% | viability, T/C [25]: 58.3% | viability, T/C [26]: 63.1% | viability, T/C [27]: 40.8% | viability, T/C [28]: 23.9% | viability, T/C [29]: 18.2% | viability, T/C [30]: 21.9% | viability, T/C [31]: 0.34% | viability, T/C [32]: 20.9% | viability, T/C [33]: 23.4% | viability, T/C [34]: 0.26% | viability, T/C [35]: 0.3% | viability, T/C [36]: 0.38%

Structure (SMILES): COc1ccc([C@@H](O)c2cc(-c3ncnc4cc(N5CCOCC5)ccc34)c(F)cc2Cl)nn1 + CN(C)c1ccc(Nc2c3ccc(NC(=O)CCN4CCCC4)cc3nc3cc(NC(=O)CCN4CCCC4)ccc23)cc1
IC50 (second compound 0.0316 µM): > 10 µM | IC50 (second compound 0.1 µM): > 10 µM | IC50 (second compound 0.316 µM): 9.2 µM | IC50 (second compound 1 µM): 6.56 µM | IC50 (second compound 3.16 µM): 5.39 µM | IC50 (second compound 10 µM): 2.89 µM | viability, T/C [1]: 101% | viability, T/C [2]: 94.6% | viability, T/C [3]: 96.3% | viability, T/C [4]: 82.8% | viability, T/C [5]: 69.1% | viability, T/C [6]: 55.7% | viability, T/C [7]: 112% | viability, T/C [8]: 98.5% | viability, T/C [9]: 101% | viability, T/C [10]: 82.9% | viability, T/C [11]: 65.5% | viability, T/C [12]: 51.5% | viability, T/C [13]: 93.3% | viability, T/C [14]: 91.5% | viability, T/C [15]: 89.1% | viability, T/C [16]: 76.1% | viability, T/C [17]: 66.5% | viability, T/C [18]: 48.5% | viability, T/C [19]: 89.5% | viability, T/C [20]: 86.3% | viability, T/C [21]: 88.2% | viability, T/C [22]: 76.6% | viability, T/C [23]: 59.4% | viability, T/C [24]: 44.7% | viability, T/C [25]: 86.1% | viability, T/C [26]: 91.2% | viability, T/C [27]: 85.2% | viability, T/C [28]: 68.9% | viability, T/C [29]: 59.9% | viability, T/C [30]: 40.7% | viability, T/C [31]: 76.6% | viability, T/C [32]: 68.2% | viability, T/C [33]: 81.9% | viability, T/C [34]: 61.4% | viability, T/C [35]: 50% | viability, T/C [36]: 27.6%

IC50 (second compound 0.0316 µM): > 10 µM | IC50 (second compound 0.1 µM): > 10 µM | IC50 (second compound 0.316 µM): > 10 µM | IC50 (second compound 1 µM): > 10 µM | IC50 (second compound 3.16 µM): > 10 µM | IC50 (second compound 10 µM): < 0.0316 µM
Structure (SMILES): C=CC(=O)N1CCN(c2nc(=O)n(-c3c(C)ccnc3C(C)C)c3nc(-c4c(O)cccc4F)c(F)cc23)C(C)C1 (stereo unspecified) + Cc1cnc(CNC(=O)c2c(=O)c3ccc(N4CCCN(C)CC4)nc3n3c2sc2ccccc23)cn1
viability, T/C [1]: 100% | viability, T/C [2]: 94.2% | viability, T/C [3]: 105% | viability, T/C [4]: 116% | viability, T/C [5]: 118% | viability, T/C [6]: 118% | viability, T/C [7]: 78.1% | viability, T/C [8]: 80.1% | viability, T/C [9]: 87.6% | viability, T/C [10]: 96.9% | viability, T/C [11]: 104% | viability, T/C [12]: 97.1% | viability, T/C [13]: 79.2% | viability, T/C [14]: 79.6% | viability, T/C [15]: 71.1% | viability, T/C [16]: 78.5% | viability, T/C [17]: 85.8% | viability, T/C [18]: 76.7% | viability, T/C [19]: 73.9% | viability, T/C [20]: 72.4% | viability, T/C [21]: 75.2% | viability, T/C [22]: 81.1% | viability, T/C [23]: 90.8% | viability, T/C [24]: 73.4% | viability, T/C [25]: 59.2% | viability, T/C [26]: 64.3% | viability, T/C [27]: 78.5% | viability, T/C [28]: 74.4% | viability, T/C [29]: 86.6% | viability, T/C [30]: 76.7% | viability, T/C [31]: 0.33% | viability, T/C [32]: 19.3% | viability, T/C [33]: 58.5% | viability, T/C [34]: 70.6% | viability, T/C [35]: 0.37% | viability, T/C [36]: 1.42%
